# Laboratory results reported in patent US9655877B2, “Therapeutic methods for treating inflammation and immune system disorders” (priority 2009, dated 2017).
# “And” between values parts separate entries of the source, which are not always exact repeats. Equal entries are not always repeated.
# Tests used:
# [1] = system: nitrite production in BV-2 cells; test: LPS-induced nitrite (nitric oxide) production in BV-2 cells, Griess reagent; type: cell-based, murine; conditions: 100 ng/ml LPS, 1-50 μg/ml, 18 hours
# Method: Nitrite levels in the culture media were determined using Griess reagent under manufacturer's instructions (Sigma Aldrich, St. Louis, Mo.). Fresh culture media were used as blanks and the nitrite levels were determined by using a standard sodium nitrite curve.
# The effect of each extract on nitric oxide production is evaluated according to the procedures illustrated as follows. Briefly, murine microglia cell line BV-2 is maintained in Dulbecco's modified Eagle's minimum essential medium (DMEM) supplemented with 10% FBS and 1% penicillin and streptomycin (Invitrogen Life Technologies, Carlsbad, Calif.) at 37° C. in a humidified atmosphere with 5% CO2 in warm air.
# 0.1 M cells/ml BV-2 cells are seeded in 24-well plates (0.5 ml in each well). Cells are treated with 0.05% DMSO; 0.05% DMSO and 100 ng/ml LPS; or 100 ng/ml LPS and 50 μg/ml of an LCX extract for 18 hours, respectively. The culture supernatant is collected. The nitric oxide level is measured using the Griess reagent according to standard manufacturer's instructions (Sigma Aldrich, St. Louis, Mo.), and assessed using the standard sodium nitrite curve.
# The effect of senkyunolide A (Sen A) and Z-ligustilide (Z-Lig) at various concentrations on LPS-induced nitrite production is further evaluated in this Example. Briefly, 0.1 M cells/ml BV-2 cells are seeded in 24-well plates (0.5 ml in each well). Cells are treated with 0.05% DMSO; 0.05% DMSO and 100 ng/ml LPS; 50 μg/ml Sen A/Z-Lig; or 100 ng/ml LPS and Sen A/Z-Lig at a concentration of 1 μg/ml, 5 μg/ml, 10 μg/ml, 25 μg/ml, and 50 μg/ml for 18 hours, respectively. The culture supernatant is collected. The nitric oxide level is measured using the Griess reagent according to standard manufacturer's instructions (Sigma Aldrich, St. Louis, Mo.), and evaluated using the standard sodium nitrite curve.
# [2] = system: TNF-α production in human blood macrophages; test: LPS-induced TNF-α production in human blood macrophages (PBMac), ELISA; type: cell-based; conditions: 25 or 50 μg/ml for 24 hours, then 1 ng/ml LPS for 24 hours
# Method: To measure the TNF-α level in cell culture supernatants, BV-2 cells were seeded at 1×10^5 cells/ml in the volume of 0.5 ml in 24-well culture plates. They were co-treated with or without 100 ng/ml LPS in the absence or presence of indicated concentrations of bioactive compounds of LCX for 18 h. In addition, PBMac cells were seeded at 1×10^6 cells/ml in the volume of 0.5 ml in 24-well plates. After incubation, the supernatants were collected and TNF-α levels were determined by ELISA according to the manufacturer's instructions (R&D Systems). […] To study the effect of Sen A and Z-Lig at various concentrations on TNF-α production, 1×10^6 cells/ml (FIG. 6) PBMac cells are seeded in 24-well plates (0.5 ml in each well). Cells are treated with 25 μg/ml or 50 μg/ml Sen A, Z-Lig, or DMSO for 24 hours prior to the addition of 1 ng/ml LPS, and further incubated for another 24 hours. The culture supernatants are collected and the level of secreted TNF-α is measured by ELISA according to the manufacturer's instructions (R&D Systems, Minneapolis, Minn.).
# [3] = system: TNF-α protein production in BV-2 cells; test: LPS-induced TNF-α protein production in BV-2 cells, ELISA; type: cell-based, murine; conditions: 100 ng/ml LPS, 18 hours
# Method: To measure the TNF-α level in cell culture supernatants, BV-2 cells were seeded at 1×10^5 cells/ml in the volume of 0.5 ml in 24-well culture plates. They were co-treated with or without 100 ng/ml LPS in the absence or presence of indicated concentrations of bioactive compounds of LCX for 18 h. In addition, PBMac cells were seeded at 1×10^6 cells/ml in the volume of 0.5 ml in 24-well plates. After incubation, the supernatants were collected and TNF-α levels were determined by ELISA according to the manufacturer's instructions (R&D Systems).
# The role of senkyunolide A (Sen A) and Z-ligustilide (Z-Lig) in suppressing TNF-α production is further evaluated in this Example. Briefly, 5×10^4 cells/ml BV-2 cells are seeded in 24-well plates (0.5 ml in each well). Cells are treated with 0.05% DMSO; 0.05% DMSO and 100 ng/ml LPS; 50 μg/ml Sen A/Z-Lig; or 100 ng/ml LPS and Sen A/Z-Lig at a concentration of 1 μg/ml, 5 μg/ml, 10 μg/ml, 25 μg/ml, and 50 μg/ml for 18 hours, respectively. The culture supernatant is collected and the level of secreted TNF-α is measured by ELISA.
# Neuro-2a cells [4] = test: Conditioned culture medium transfer model (LPS-treated BV-2 supernatant on Neuro-2a), MTT assay; type: cell-based, murine; conditions: supernatant of BV-2 cells treated with 100 ng/ml LPS and 50 μg/ml compound 18 h, on Neuro-2a 48 h; LPS only more than 40%
# Method: BV-2 cells (3×10^5 cells/ml) were first treated with 100 ng/ml LPS for 18 h, in the presence of either 0.05% DMSO or 50 μg/ml senkyunolide A or Z-ligustilide. After centrifugation, the supernatants from BV-2 cells were transferred to Neuro-2a cells ([…]) for 48 h. Viability of Neuro-2a cells was measured using MTT assays. Results are shown as mean SD from three independent experiments. *p<0.05 compared with DMSO+LPS.
# BV-2 cells were seeded at 3×10^5 cells/ml in 12-well culture plates (1 ml in each well). They were co-treated with or without 100 ng/ml LPS, in the presence of 0.05% DMSO, 50 μg/ml senkyunolide A, or 50 μg/ml Z-ligustilide, for 18 h. The supernatants were then collected and centrifuged at 13,200 rpm for 3 min. The resulting supernatants were then transferred to Neuro-2a cells (1×10^5 cells/ml in 24-well culture plates), which were incubated for another 48 h. Cell viability of Neuro-2a cells was measured by MTT assay.
# Briefly, to investigate the physiological significance of Sen A and Z-Lig, a conditioned culture medium transfer model, commonly used for studying neuronal cell death induced by microglial activation, was adopted. After BV-2 cells were challenged with LPS, the supernatants were collected and centrifuged. The conditioned culture media were then transferred to Neuro-2a cell cultures.
# Neuro-2a cells [5] = test: Neuro-2a cells treated with compound alone in the culture media; type: cell-based, murine; conditions: compound alone in the culture media (data not shown)
# Text: Specifically, a significant reduction in cell death, to less than 15% and 25%, respectively, was observed.
structure (smiles),measurement,setting,value
CCC/C=C1\OC(=O)C2=C1CCC=C2 [Z-ligustilide],effect on nitrite production over concentrations,[1],inhibits nitrite production in a dose-dependent manner
same,effect on endotoxin-induced TNF-α production,[2],suppress endotoxin-induced TNF-α production in a dose-dependent manner
same,effect on TNF-α production over concentrations,[3]; 1-50 μg/ml,inhibits TNF-α production in a dose-dependent manner
same,concentration that significantly inhibits TNF-α production,[3],10 µg/mL and > 10 µg/mL
same,cell death of Neuro-2a cells,Neuro-2a cells [4],< 25%
same,cell death with compound alone,Neuro-2a cells [5],did not show cell death
